Source: US12528805B2, “Solid forms of emetine” (Acer Therapeutics, Inc., priority 2020, dated 2026)
Structures can show the parent of a compound that is named as a salt.

Assay: Solubility screening by solvent addition technique (approximate solubility)
Type: physicochemical
Conditions: thermodynamic from solid, stirred at 50° C.
Protocol: Approximate solubility values for amorphous Compound I dihydrochloride in 24 solvent systems was estimated by a solvent addition technique (Table 5).
The following procedure was used for the study: • Approximately 20 mg of material was weighed out into 24×2 mL push-cap vials. • Each solvent/solvent mixture was added to the appropriate vial in 5 volume aliquots (100 μL) until either no more solvent could be added or until the material dissolved. • In between additions, the experiments were stirred at 50° C. • If 2000 μL of solvent was added without dissolution of the material, solubility was calculated to be below this point. • Experiments were stirred at 50° C. for 1.5-5 h and then cooled at 0.1° C./min to 5° C. and stirred at 5° C. for about 10 h. • Solids (residual and recrystallized) were isolated by centrifugation (0.22 μm nylon filter) and analyzed by XRPD. • Anti-solvent addition (ASA) at 20° C. was carried out on solutions, followed by temperature cycling between 50° C.-5° C. (1 h hold, 0.1° C./min cool, 0.25° C./min ramp) for 20 h. • ASA at 5° C. was carried out on experiments which remained solutions, which were then stirred at 5° C. for 3 h. • Solids were isolated by centrifugation (0.22 μm nylon filter) and analyzed by XRPD; experiments which remained solutions were evaporated at ambient temperature (about 20° C.) under vacuum. • All isolated material was dried under vacuum at about 30° C. for about 19-23 h then re-analyzed by XRPD.
For comparison purposes, the approximate solubility of Compound I dihydrochloride Form 1 was estimated in water, using the same procedure, in solubility screening Experiment 25.

What does the source list for CC[C@H]1CN2CCc3cc(OC)c(OC)cc3[C@@H]2C[C@@H]1C[C@H]1NCCc2cc(OC)c(OC)cc21 [Amorphous Compound I dihydrochloride]?
solubility (aqueous with cosolvent or surfactant or cyclodextrin, acetone:water 50:50 v/v): > 200 mg/mL; solubility (aqueous with cosolvent or surfactant or cyclodextrin, ethanol:water 25:75 v/v): > 200 mg/mL; solubility (aqueous with cosolvent or surfactant or cyclodextrin, methanol:water 50:50 v/v): > 200 mg/mL; solubility (organic solvent or mixture, 1-propanol): > 200 mg/mL; solubility (organic solvent or mixture, 2-methyl THF): < 10 mg/mL; solubility (organic solvent or mixture, 2-propanol): > 200 mg/mL; solubility (organic solvent or mixture, 2-propanol:water 95:5 v/v): > 200 mg/mL; solubility (organic solvent or mixture, N-methyl-2-pyrrolidone): > 200 mg/mL; solubility (organic solvent or mixture, THF): < 10 mg/mL; solubility (organic solvent or mixture, acetone): < 10 mg/mL; solubility (organic solvent or mixture, anisole): < 10 mg/mL; solubility (organic solvent or mixture, dimethylformamide): > 200 mg/mL; solubility (organic solvent or mixture, dimethylsulfoxide): > 200 mg/mL; solubility (organic solvent or mixture, ethanol): > 200 mg/mL; solubility (organic solvent or mixture, ethanol:water 90:10 v/v): > 200 mg/mL; solubility (organic solvent or mixture, ethyl acetate): < 10 mg/mL; solubility (organic solvent or mixture, heptane): < 10 mg/mL; solubility (organic solvent or mixture, isopropyl acetate): < 10 mg/mL; solubility (organic solvent or mixture, methanol): > 200 mg/mL; solubility (organic solvent or mixture, methylethyl ketone): < 10 mg/mL; solubility (organic solvent or mixture, methylisobutyl ketone): < 10 mg/mL; solubility (organic solvent or mixture, tBME): < 10 mg/mL; solubility (organic solvent or mixture, toluene): < 10 mg/mL; solubility (water): > 200 mg/mL
